Assays:
Assay in all cases: MIC, antibacterial and synergistic activity
Type in all cases: cell-based
E. coli ATCC 25922 = E. coli ATCC 25922 (Wt)
E.coli JMI 4103 = E.coli JMI 4103 (KPC-2, Tem-1, CMY-Type)
E. coli JMI 4080 = system: E. coli JMI 4080
E. coli JMI 10767 [1] = conditions: E. coli JMI 10767 (Wt)
Method: (§1) In the Tables 10 - 12, compounds herein disclosed were tested in combination with various antibiotics against metallo β-lactamase producing bacteria. Table 3: Synergy of the inhibitor Ex. 1 (4 µg/mL) in combination with antibiotics

E. coli JMI 10768 [2] = conditions: E. coli JMI 10768 (CTX-M15 (Weak ESBL))
Method: as §1

E. coli JMI 10770 = E. coli JMI 10770 (CTX-M15 (Hyper ESBL))
Method: as §1

E. coli JMI 2665 = system: E. coli JMI 2665
Method: as §1

E. coli JMI 2671 = system: E. coli JMI 2671
Outline: (§2)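 Here the inhibitor, at a set 4 µg/mL, accompanies each antibiotic. MIC determination used MBL-positive bacteria.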

K. pneumo JMI 2699 = K. pneumo JMI 2699 (VIM-1, CTX-M3)
Outline: as §2

K.pneumo JMI 4109 = K.pneumo JMI 4109 (SHV-1, SHV-12)
Outline: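 Antibacterial synergy was assessed by pairing each inhibitor compound, at a constant concentration of 4 µg/mL, with β-lactam antibiotics. The combinations were run against bacterial strains that produce β-lactamases, and the readout was the minimum inhibitory concentration of the antibiotic in the presence of the inhibitor.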

K. pneumo JMI 4106 = K. pneumo JMI 4106 (KPC-3, TEM-1, SHV-12, SHV-141)
E. coli JMI 2692 = E. coli JMI 2692 (NDM-1, TEM-1, CTX-M-15)
Method: (§3) In the Tables 10 - 12, compounds herein disclosed were tested in combination with various antibiotics against metallo β-lactamase producing bacteria.

K. pneumo JMI 2693 = K. pneumo JMI 2693 (NDM-1 (Cpase))
Method: as §3

K. pneumo JMI 2697 = K. pneumo JMI 2697 (IMP-4 (Cpase))
Method: as §3

K. pneumo JMI 2681 = K. pneumo JMI 2681 (Oxa-48 (Cpase))
P. aerug JMI 149 = P. aerug JMI 149 (Bla+++D+)
K. pneumo JMI 2674 = K. pneumo JMI 2674 (CTX-M15 (ESBL)); substance alone
K. pneumo JMI 4088 = K. pneumo JMI 4088 (KPC-3 (Cpase)); substance alone
P. aerug JMI 2686 = P. aerug JMI 2686 (KPC-2 (Cpase)); substance alone
E. coli JMI 10767 [3] = conditions: E. coli JMI 10767 (Wt); remark: listed apart in the source
E. coli JMI 10768 [4] = conditions: E. coli JMI 10768 (CTX-M15 (Weak ESBL)); Meropenem + inhibitor at 4 µg/mL
E. coli JMI 11103 = system: E. coli JMI 11103
[5] = Aztreonam + inhibitor at 4 µg/mL
[6] = Ceftazidime + inhibitor at 4 µg/mL
[7] = Meropenem + inhibitor at 4 µg/mL

## O=C(NNC(=O)[C@H]1CC[C@H]2CN1C(=O)N2OS(=O)(=O)O)C1CC1 (stereo in doubt) [Ex. 7, (2R,5S)-N'-(cyclopropylcarbonyl)-7-oxo-6-(sulfooxy)-1,6-diazabicyclo[3.2.1]octane-2-carbohydrazide]
E. coli ATCC 25922; [5]
  MIC Aztreonam + inhibitor: ≤0.0625 µg/mL
E. coli ATCC 25922; [6]
  MIC Ceftazidime + inhibitor: ≤0.25 µg/mL
E. coli ATCC 25922; [7]
  MIC Meropenem + inhibitor: ≤0.0312 µg/mL
E. coli ATCC 25922; Escherichia coli, ATCC25922, substance alone
  MIC: > 16 µg/mL
E.coli JMI 4103; [5]
  MIC Aztreonam + inhibitor: ≤0.062 µg/mL
E.coli JMI 4103; [6]
  MIC Ceftazidime + inhibitor: ≤0.25 µg/mL
E.coli JMI 4103; [7]
  MIC Meropenem + inhibitor: ≤0.0312 µg/mL
E.coli JMI 4103; Escherichia coli, JMI4103, substance alone
  MIC: 2 µg/mL
E. coli JMI 4080; E. coli JMI 4080 (Tem-10), Aztreonam + inhibitor at 4 µg/mL
  MIC Aztreonam + inhibitor: ≤0.062 µg/mL
E. coli JMI 4080; E. coli JMI 4080 (Tem-10), Ceftazidime + inhibitor at 4 µg/mL
  MIC Ceftazidime + inhibitor: ≤0.25 µg/mL
E. coli JMI 4080; E. coli JMI 4080 (Tem-10), Meropenem + inhibitor at 4 µg/mL
  MIC Meropenem + inhibitor: ≤0.0312 µg/mL
E. coli JMI 4080; Escherichia coli, JMI4080, E. coli JMI 4080 (Tem-10), substance alone
  MIC: 4 µg/mL
E. coli JMI 10767 [1]; [5]
  MIC Aztreonam + inhibitor: ≤0.062 µg/mL
E. coli JMI 10767 [1]; [6]
  MIC Ceftazidime + inhibitor: ≤0.25 µg/mL
E. coli JMI 10768 [2]; [5]
  MIC Aztreonam + inhibitor: ≤0.062 µg/mL
E. coli JMI 10768 [2]; [6]
  MIC Ceftazidime + inhibitor: 2 µg/mL
E. coli JMI 10768 [2]; Escherichia coli, JMI10768, substance alone
  MIC: 16 µg/mL
E. coli JMI 10770; [5]
  MIC Aztreonam + inhibitor: ≤0.062 µg/mL
E. coli JMI 10770; [6]
  MIC Ceftazidime + inhibitor: ≤0.25 µg/mL
E. coli JMI 10770; [7]
  MIC Meropenem + inhibitor: ≤0.0312 µg/mL
E. coli JMI 2665; E. coli JMI 2665 (CMY-2 (Plasmid Cpase)), Aztreonam + inhibitor at 4 µg/mL
  MIC Aztreonam + inhibitor: ≤0.062 µg/mL
E. coli JMI 2665; E. coli JMI 2665 (CMY-2 (Plasmid Cpase)), Ceftazidime + inhibitor at 4 µg/mL
  MIC Ceftazidime + inhibitor: ≤0.25 µg/mL
E. coli JMI 2665; Escherichia coli, JMI2665
  MIC: 2 µg/mL
E. coli JMI 2671; E. coli JMI 2671 (VIM-19 (Cpase)), Aztreonam + inhibitor at 4 µg/mL
  MIC Aztreonam + inhibitor: ≤0.062 µg/mL
E. coli JMI 2671; E. coli JMI 2671 (VIM-19 (Cpase)), Ceftazidime + inhibitor at 4 µg/mL
  MIC Ceftazidime + inhibitor: 0.5 µg/mL
E. coli JMI 2671; E. coli JMI 2671 (VIM-19 (Cpase)), Meropenem + inhibitor at 4 µg/mL
  MIC Meropenem + inhibitor: 0.5 µg/mL
E. coli JMI 2671; Escherichia coli, JMI2671, E. coli JMI 2671 (VIM-19 (Cpase)), substance alone
  MIC: 8 µg/mL
K. pneumo JMI 2699; [5]
  MIC Aztreonam + inhibitor: ≤0.062 µg/mL
K. pneumo JMI 2699; [6]
  MIC Ceftazidime + inhibitor: 0.5 µg/mL
K. pneumo JMI 2699; [7]
  MIC Meropenem + inhibitor: 0.5 µg/mL
K. pneumo JMI 2699; substance alone, read-out: MIC
  MIC: 16 µg/mL
K.pneumo JMI 4109; [5]
  MIC Aztreonam + inhibitor: 0.125 µg/mL
K.pneumo JMI 4109; [6]
  MIC Ceftazidime + inhibitor: ≤0.25 µg/mL
K.pneumo JMI 4109; [7]
  MIC Meropenem + inhibitor: ≤0.0312 µg/mL
K. pneumo JMI 4106; [5]
  MIC Aztreonam + inhibitor: 0.125 µg/mL
K. pneumo JMI 4106; [6]
  MIC Ceftazidime + inhibitor: ≤0.25 µg/mL
K. pneumo JMI 4106; [7]
  MIC Meropenem + inhibitor: ≤0.0312 µg/mL
K. pneumo JMI 4106; substance alone, read-out: MIC
  MIC: 16 µg/mL
E. coli JMI 2692; [5]
  MIC Aztreonam + inhibitor: ≤0.062 µg/mL
E. coli JMI 2692; [6]
  MIC Ceftazidime + inhibitor: ≤0.25 µg/mL
E. coli JMI 2692; [7]
  MIC Meropenem + inhibitor: 0.5 µg/mL
E. coli JMI 2692; Escherichia coli, JMI2692, substance alone, read-out: MIC
  MIC: 8 µg/mL
K. pneumo JMI 2693; [5]
  MIC Aztreonam + inhibitor: 1 µg/mL
K. pneumo JMI 2693; [6]
  MIC Ceftazidime + inhibitor: 2 µg/mL
K. pneumo JMI 2693; [7]
  MIC Meropenem + inhibitor: 0.25 µg/mL
K. pneumo JMI 2693; substance alone
  MIC: > 16 µg/mL
K. pneumo JMI 2697; [5]
  MIC Aztreonam + inhibitor: ≤0.062 µg/mL
K. pneumo JMI 2697; [6]
  MIC Ceftazidime + inhibitor: 16 µg/mL
K. pneumo JMI 2697; [7]
  MIC Meropenem + inhibitor: 2 µg/mL
K. pneumo JMI 2697; substance alone
  MIC: > 16 µg/mL
K. pneumo JMI 2681; [5]
  MIC Aztreonam + inhibitor: 0.25 µg/mL
K. pneumo JMI 2681; [6]
  MIC Ceftazidime + inhibitor: 0.5 µg/mL
K. pneumo JMI 2681; [7]
  MIC Meropenem + inhibitor: 0.25 µg/mL
K. pneumo JMI 2681; substance alone, read-out: MIC
  MIC: > 16 µg/mL
P. aerug JMI 149; [5]
  MIC Aztreonam + inhibitor: >4 µg/mL
P. aerug JMI 149; [6]
  MIC Ceftazidime + inhibitor: >16 µg/mL
P. aerug JMI 149; [7]
  MIC Meropenem + inhibitor: >2 µg/mL
P. aerug JMI 149; substance alone, read-out: MIC
  MIC: > 16 µg/mL
K. pneumo JMI 2674
  MIC: > 16 µg/mL
K. pneumo JMI 4088
  MIC: > 16 µg/mL
P. aerug JMI 2686
  MIC: > 16 µg/mL
E. coli JMI 10767 [3]; [7]
  MIC Meropenem + inhibitor: ≤0.0312 µg/mL
E. coli JMI 10767 [3]; Escherichia coli, JMI10767, substance alone
  MIC: 8 µg/mL
E. coli JMI 10768 [4]
  MIC Meropenem + inhibitor: ≤0.0312 µg/mL
E. coli JMI 11103; E. coli JMI 11103 (CTX-M15 (Intermediate ESBL)), Aztreonam + inhibitor at 4 µg/mL
  MIC Aztreonam + inhibitor: ≤0.062 µg/mL
E. coli JMI 11103; E. coli JMI 11103 (CTX-M15 (Intermediate ESBL)), Ceftazidime + inhibitor at 4 µg/mL
  MIC Ceftazidime + inhibitor: ≤0.25 µg/mL
E. coli JMI 11103; E. coli JMI 11103 (CTX-M15 (Intermediate ESBL)), Meropenem + inhibitor at 4 µg/mL
  MIC Meropenem + inhibitor: ≤0.0312 µg/mL
E. coli JMI 11103; Escherichia coli, JMI11103, E. coli JMI 11103 (CTX-M15 (Intermediate ESBL)), substance alone
  MIC: 16 µg/mL
